The target of test [1] is T1, HIV-1 IN LEDGF/p75-dependent activity (Human immunodeficiency virus type 1 group M subtype B, UniProt P04585).
T1 construct: Recombinant His and FLAG-IN proteins and His and FLAG-LEDGF proteins were expressed in Escherichia coli strain BL21 (DE3); His or FLAG (separate preparations); made in house; host or cells: Escherichia coli BL21 (DE3)
Put plainly: HTRF LEDGF-dependent IN assay. It is filed as biochemical. To be noted: for IC50: recombinant IN with LEDGF/p75, HTRF; for IN inhibitory activity (in words): LEDGF/p75-dependent IN activity. As to the method: Recombinant His and FLAG-IN proteins and His and FLAG-LEDGF proteins were expressed in Escherichia coli strain BL21 (DE3) and purified, as previously described.
IN activity in the presence of recombinant LEDGF/p75 protein were determined as described before. IN was pre-incubated in reaction buffer containing 20 mM HEPES pH 7.5, 1 mM DTT, 1% glycerol, 20 mM MgCl2, 0.05% Brij-35 and 0.1 mg/mL BSA with increasing concentration of compounds for 1 h at room temperature. After the addition to this mixture of 9 nM DNA donor substrate, 50 nM DNA acceptor substrate and 50 nM LEDGF/p75 protein (when required), the reaction was incubated at 37 °C for 90 min. The addition of 4 nM of Europium–Streptavidin to the reaction mixture provided the HTRF signal, which was recorded using a Perkin Elmer (Waltham, MA, USA) Victor 3 plate reader with 314 nm for excitation wavelength and 668 and 620 nm for the wavelength of the acceptor and the donor substrates emission, respectively.
A general note: TR-FRET usually uses a lanthanide donor and a delayed reading to cut background.

Test [2] addresses T2, HIV-1 RT-RNase H (Human immunodeficiency virus type 1 group M subtype B, UniProt P04585).
T2 construct: preparation and purification of wild type p66/p51 HIV-1 RT; made in house
In words: RNase H inhibitory assay (fluorescent RNA/DNA hybrid). The class given is biochemical. The note with it: for IC50: wild type p66/p51 HIV-1 RT. As to the method: The previously reported procedure was used for preparation and purification of wild type p66/p51 HIV-1 RT. Enzyme was stored in a 50% glycerol-containing buffer at −20 °C [32, 46]. An 18-nt 3′-fluorescein-labeled RNA annealed to a complementary 18-nt 5′-dabsyl-labeled DNA was used to determine IC50 values, following a previously described procedure. In brief, 1 μL of each inhibitor dissolved in DMSO was added to a 96-well plate, followed by 10 μL of the proper RT ([…]) in reaction buffer. The addition of 10 μL of RNA/DNA hybrid (2.5 μM) initiated the hydrolysis. Then, 50 mM Tris-HCl, pH 8.0, 60 mM KCl, 10 mM MgCl2, 1% DMSO, 150−800 ng of RT, 250 nM substrate, and increasing concentrations of inhibitor were chosen as final assay conditions. As negative control, wells containing only DMSO were used. Subsequently, the plates were incubated in a Spectramax Gemini EM fluorescence spectrometer for 10 min at 37 °C, measuring the fluorescence (λex = 485 nm; λem = 520 nm) at 1 min intervals in order to determine the linear initial rates in the presence (vi) and absence (vo) of inhibitor. Percent inhibition was assessed as 100(vo − vi)/vo and plotted against log[I]. Prism5 (GraphPad Software 5.0) was used to calculate the IC50 values. All assays were carried out in triplicate.

The target in test [3] is T2, HIV-1 RT-RNase H. Further details: method as in PMID 23631411. To be noted: cited from earlier work.
Test [4] has as its target T1, HIV-1 IN LEDGF/p75-dependent activity. Details: method as in PMID 23631411. The note with it: first experiment, 3,4-catechol analogue of 5; cited from earlier work.

Where two headings read alike, the source gives them in different places. Where only a bound is given, the exact number is not on record here.

The IC50 is the concentration that inhibits the measured activity by half.

For `Cc1sc2nc(-c3ccco3)[nH]c(=O)c2c1C` [Compound 21, 2-(furan-2-yl)-5,6-dimethylthieno[2,3-d]pyrimidin-4(3H)-one], the IC50 in test [1] came to 5.75 ± 0.85 µM; in test [2], 2.5 ± 0.1 µM.
On to `CC(C)Cc1csc2nc(-c3ccc(O)c(O)c3)[nH]c(=O)c12` [Compound 20, 2-(3,4-dihydroxyphenyl)-5-isobutylthieno[2,3-d]pyrimidin-4(3H)-one], for which the IC50 in test [1] was determined as 8.5 ± 2.5 µM.
With `Cc1sc2nc(-c3c[nH]c4ccccc34)[nH]c(=O)c2c1C` [Compound 26], the IC50 was 0.48 ± 0.6 µM in test [3] and 2.85 ± 0.85 µM in test [1].
With `O=c1[nH]c(-c2ccc(O)cc2O)nc2sc3c(c12)CCCCC3` [Compound 16], in test [1], the IC50 was found to be 10 ± 1 µM.
For the compound `Cc1sc2nc(-c3ccc([N+](=O)[O-])o3)[nH]c(=O)c2c1C` [Compound 23], the IC50 was 16.9 ± 1.7 µM in test [3] and 4.6 ± 0.82 µM in test [1].
Regarding `Cc1sc2nc(-c3ccc(O)c(O)c3)[nH]c(=O)c2c1C` [Compound 8, 2-(3,4-dihydroxyphenyl)-5,6-dimethylthieno[2,3-d]pyrimidin-4(3H)-one], the results for the IC50 in test [3], in test [1] and in test [2] were 0.26 ± 0.01 µM, 24.4 ± 2.6 µM and 0.26 ± 0.01 µM, respectively.
As to `Cc1sc2nc(-c3cccc(O)c3O)[nH]c(=O)c2c1C` [Compound 10, 2-(2,3-dihydroxyphenyl)-5,6-dimethylthieno[2,3-d]pyrimidin-4(3H)-one], the IC50 in test [1] is 12.6 ± 1.29 µM.
For the compound `Cc1sc2nc(-c3cccn3C)[nH]c(=O)c2c1C` [Compound 28, 5,6-dimethyl-2-(1-methyl-1H-pyrrol-2-yl)thieno[2,3-d]pyrimidin-4(3H)-one], in test [1], the “IN inhibitory activity (in words)” value is “completely IN inactive”. Besides, the half-maximal inhibitory concentration (IC50) was more than 50 µM in test [1] and 14.8 ± 0.6 µM in test [2].
In the case of `O=c1[nH]c(-c2cc(O)ccc2O)nc2sc3c(c12)CCCCC3` [Compound 17], in test [1], the IC50 was found to be 5.65 ± 0.15 µM.
As for `Cc1ccc(-c2nc3sc(C)c(C)c3c(=O)[nH]2)o1` [Compound 22, 5,6-dimethyl-2-(5-methylfuran-2-yl)thieno[2,3-d]pyrimidin-4(3H)-one], the IC50 is 8.75 ± 0.35 µM in test [1] and 14.4 ± 0.2 µM in test [2].
Consider `O=c1[nH]c(-c2ccc(O)c(O)c2)nc2sc3c(c12)CCCCC3` [Compound 9], for which the IC50 in test [3] was 0.29 ± 0.11 µM; in test [1] it was 18.3 ± 2.3 µM.
`O=c1[nH]c(-c2cccc(O)c2O)nc2sc3c(c12)CCCCC3` [Compound 15]: the IC50 in test [1] came out at 24 ± 1 µM.
For the compound `Cc1sc2nc(-c3cccs3)[nH]c(=O)c2c1C` [Compound 24, 5,6-dimethyl-2-(thiophen-2-yl)thieno[2,3-d]pyrimidin-4(3H)-one], in test [1], the “IN inhibitory activity (in words)” value was “inactive” and the IC50 is more than 50 µM. Also, half-maximal inhibition in test [2] (IC50) required 8.2 ± 1.3 µM.
In the case of `CC1CCCc2sc3nc(-c4ccc(O)c(O)c4)[nH]c(=O)c3c21` (stereo not shown) [Compound 19, 2-(3,4-dihydroxyphenyl)-5-methyl-5,6,7,8-tetrahydrobenzo[4,5]thieno[2,3-d]pyrimidin-4(3H)-one], in test [1], the IC50 stood at 5.9 ± 0.5 µM.
As to `CCCc1c(C)sc2nc(-c3ccc(O)c(O)c3)[nH]c(=O)c12` [Compound 29], the IC50 in test [4] was more than 50 µM.
For the compound `Cc1sc2nc(-c3cc(O)ccc3O)[nH]c(=O)c2c1C` [Compound 13], in test [1], the IC50 stood at 85 ± 6 µM.
For the compound `Cc1sc2nc(-c3cc(O)cc(O)c3)[nH]c(=O)c2c1C` [Compound 14, 2-(3,5-dihydroxyphenyl)-5,6-dimethylthieno[2,3-d]pyrimidin-4(3H)-one], in test [1], the half-maximal inhibitory concentration (IC50) came to 3.7 ± 0.73 µM.
As for `Cc1sc2nc(-c3ccc[nH]3)[nH]c(=O)c2c1C` [Compound 27, 5,6-dimethyl-2-(1H-pyrrol-2-yl)thieno[2,3-d]pyrimidin-4(3H)-one], in test [1], the “IN inhibitory activity (in words)” value is “completely IN inactive” and the IC50 is more than 50 µM. Moreover, in test [2], it took 35.3 ± 1.5 µM to reach half-maximal inhibition (IC50).
With `Cc1sc2nc(-c3ccccc3O)[nH]c(=O)c2c1C` [Compound 11, 2-(2-hydroxyphenyl)-5,6-dimethylthieno[2,3-d]pyrimidin-4(3H)-one], the IC50 in test [1] was determined as 22 ± 2.8 µM.
Take `Cc1sc2nc(-c3ccc([N+](=O)[O-])s3)[nH]c(=O)c2c1C` [Compound 25, 5,6-dimethyl-2-(5-nitrothiophen-2-yl)thieno[2,3-d]pyrimidin-4(3H)-one]: the IC50 is 3.2 ± 0.8 µM in test [1] and more than 50 µM in test [2]. Besides, the “RNase H inhibitory activity (in words)” value in test [2] is “completely inactive”.
On to `O=c1[nH]c(-c2cc(O)cc(O)c2)nc2sc3c(c12)CCCCC3` [Compound 18], for which, in test [1], the IC50 amounted to 3.37 ± 0.48 µM.
On to `Cc1sc2nc(-c3ccc(O)cc3O)[nH]c(=O)c2c1C` [Compound 12, 2-(2,4-dihydroxyphenyl)-5,6-dimethylthieno[2,3-d]pyrimidin-4(3H)-one], for which the IC50 in test [1] was found to be 22.3 ± 1.57 µM.

Values taken from PMC10537185, “Dihydroxyphenyl- and Heteroaromatic-Based Thienopyrimidinones to Tackle HIV-1 LEDGF/p75-Dependent IN Activity” (Molecules, 2023).
